Measured values: patent US7879862B2, “Pyrazolo[1,5-alpha]pyrimidinyl derivatives useful as corticotropin-releasing factor (CRF) receptor antagonists” (SmithKline Beecham (Cork) Limited, priority 2004, dated 2011)
Like-named read-outs stand apart in the source and are kept apart here.

Target: T1, human CRF receptors (Homo sapiens, UniProt P34998)
T1 construct: expressed in transfected cells
T1 sequence (P34998 24-415): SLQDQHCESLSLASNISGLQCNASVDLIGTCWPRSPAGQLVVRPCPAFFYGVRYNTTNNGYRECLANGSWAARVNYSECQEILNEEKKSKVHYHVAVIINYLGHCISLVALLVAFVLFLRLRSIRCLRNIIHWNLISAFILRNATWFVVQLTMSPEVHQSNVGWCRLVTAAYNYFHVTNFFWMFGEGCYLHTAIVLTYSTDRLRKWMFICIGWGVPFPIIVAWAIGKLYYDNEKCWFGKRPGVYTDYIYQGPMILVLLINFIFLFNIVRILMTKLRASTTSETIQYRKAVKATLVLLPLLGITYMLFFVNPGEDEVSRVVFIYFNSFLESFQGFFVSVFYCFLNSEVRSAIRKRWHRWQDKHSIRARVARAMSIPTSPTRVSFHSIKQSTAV
Experiment: CRF receptor binding activity (radioligand displacement, Example 25)
Description: The effectiveness of a compound as a CRF receptor antagonist may be determined by various assay methods. […] CRF receptor affinity may be determined by binding studies that measure the ability of a compound to inhibit the binding of a radiolabeled CRF (e.g., [^125I]tyrosine-CFR) to its receptor (e.g., receptors prepared from rat cerebral cortex membranes). The radioligand binding assay described by DeSouza et al. (supra, 1987) provides an assay for determining a compound's affinity for the CRF receptor.
[formula] where L=radioligand and KD=affinity of radioligand for receptor (Cheng and Prusoff, Biochem. Pharmacol. 22:3099, 1973).
By utilizing radiolabeled CRF ligands, the assay may be used to evaluate the binding activity of the compounds of the present invention with any CRF receptor subtype.
Briefly, the binding assay involves the displacement of a radiolabeled CRF ligand from the CRF receptor. More specifically, the binding assay is performed in 96-well assay plates using 1-10 μg cell membranes from cells stably transfected with human CRF receptors. […] The mixture is incubated for 2 hours at 22° C. followed by separation of the bound and free radioligand by rapid filtration over glass fiber filters. Following three washes, the filters are dried and radioactivity (Auger electrons from ^125I) is counted using a scintillation counter. All radioligand binding data may be analyzed using the non-linear least-squares curve-fitting programs Prism (GraphPad Software Inc) or XLfit (ID Business Solutions Ltd).

[1] = displacement of [125I] tyrosine-sauvagine from membranes of cells stably transfected with human CRF receptors, less than 0.10 μM (i.e., 100 nM), read-out: Ki (CRF receptor binding affinity)

Compound	Ki [nM]	Ki [1] [nM]
CCC(Nc1cc(C)nc2c(-c3ccc(OC)cc3OC)c(C)nn12)c1nc(C)no1 (stereo not shown) [Example 11-20, [3-(2,4-Dimethoxy-phenyl)-2,5-dimethyl-pyrazolo[1,5-a]pyrimidin-7-yl]-[1-(3-methyl-[1,2,4]oxadiazol-5-yl)-propyl]-amine]	< 100	–
CCC(Cc1nc(C)no1)Nc1cc(C)nc2c(-c3ccc(OC)cc3OC)c(C)nn12 (stereo not shown) [Example 12-11, [3-(2,4-Dimethoxy-phenyl)-2,5-dimethyl-pyrazolo[1,5-a]pyrimidin-7-yl]-[1-(3-methyl-[1,2,4]oxadiazol-5-ylmethyl)-propyl]-amine]	–	< 100
COc1ccc(-c2c(C)nn3c(NC(C)Cc4nc(C5CC5)no4)cc(C)nc23)c(C)c1 (stereo not shown) [Example 12-4, [2-(3-Cyclopropyl-[1,2,4]oxadiazol-5-yl)-1-methyl-ethyl]-[3-(4-methoxy-2-methyl-phenyl)-2,5-dimethyl-pyrazolo[1,5-a]pyrimidin-7-yl]-amine]	–	< 100
COc1ccc(-c2c(C)nn3c(N[C@@H](Cc4nc(C)no4)C(F)(F)F)cc(C)nc23)c(C)c1 [Example 13-2, [3-(4-Methoxy-2-methyl-phenyl)-2,5-dimethyl-pyrazolo[1,5-a]pyrimidin-7-yl]-[2,2,2-trifluoro-(S)-1-(3-methyl-[1,2,4]oxadiazol-5-ylmethyl)-ethyl]-amine]	–	< 100
CCC(Nc1cc(C)nc2c(-c3ccc(OC)cc3C)c(C)nn12)c1nc(C(F)(F)F)no1 (stereo not shown) [Example 11-11, [3-(4-Methoxy-2-methyl-phenyl)-2,5-dimethyl-pyrazolo[1,5-a]pyrimidin-7-yl]-[1-(3-trifluoromethyl-[1,2,4]oxadiazol-5-yl)-propyl]-amine]	–	< 100
COc1ccc(-c2c(C)nn3c(N[C@@H](Cc4nc(C(F)(F)F)no4)C(F)(F)F)cc(C)nc23)c(OC)c1 [Example 13-9, [3-(2,4-Dimethoxy-phenyl)-2,5-dimethyl-pyrazolo[1,5-a]pyrimidin-7-yl]-[2,2,2-trifluoro-(S)-1-(3-trifluoromethyl-[1,2,4]oxadiazol-5-ylmethyl)-ethyl]-amine]	–	< 100
CCC(Nc1cc(C)nc2c(-c3ccc(C)cc3Cl)c(C)nn12)c1nc(C)no1 (stereo not shown) [Example 24-6, [3-(2-Chloro-4-methyl-phenyl)-2,5-dimethyl-pyrazolo[1,5-a]pyrimidin-7-yl]-[1-(3-methyl-[1,2,4]oxadiazol-5-yl)-propyl]-amine]	–	< 100
CCN(Cc1nc(C)no1)c1cc(C)nc2c(-c3ccc(OC)cc3C)c(C)nn12 [Example 20-1, Ethyl-[3-(4-methoxy-2-methyl-phenyl)-2,5-dimethyl-pyrazolo[1,5-a]pyrimidin-7-yl]-(3-methyl-[1,2,4]oxadiazol-5-ylmethyl)-amine]	< 100	–
COc1ccc(-c2c(C)nn3c(N[C@H](C)Cc4noc(C(F)(F)F)n4)cc(C)nc23)c(C)c1 [Example 18-2, [3-(4-Methoxy-2-methyl-phenyl)-2,5-dimethyl-pyrazolo[1,5-a]pyrimidin-7-yl]-[(R)-1-methyl-2-(5-trifluoromethyl-[1,2,4]oxadiazol-3-yl)-ethyl]-amine]	–	< 100
CCc1noc(C[C@@H](C)Nc2cc(C)nc3c(-c4ccc(OC)cc4C)c(C)nn23)n1 [Example 11-17, [2-(3-Ethyl-[1,2,4]oxadiazol-5-yl)-(R)-1-methyl-ethyl]-[3-(4-methoxy-2-methyl-phenyl)-2,5-dimethyl-pyrazolo[1,5-a]pyrimidin-7-yl]-amine]	–	< 100
CC[C@H](Cc1noc(C)n1)Nc1cc(C)nc2c(-c3ccc(OC)cc3C)c(C)nn12 [Example 17-3, [3-(4-Methoxy-2-methyl-phenyl)-2,5-dimethyl-pyrazolo[1,5-a]pyrimidin-7-yl]-[(R)-1-(5-methyl-[1,2,4]oxadiazol-3-ylmethyl)-propyl]-amine]	–	< 100
COc1ccc(-c2c(C)nn3c(N[C@H](C)Cc4nc(C(F)(F)F)no4)cc(C)nc23)c(C)c1 [Example 13-5, [3-(4-Methoxy-2-methyl-phenyl)-2,5-dimethyl-pyrazolo[1,5-a]pyrimidin-7-yl]-[(R)-1-methyl-2-(3-trifluoromethyl-[1,2,4]oxadiazol-5-yl)-ethyl]-amine]	–	< 100
COc1ccc(-c2c(C)nn3c(NC(Cc4nc(C)no4)C(F)(F)F)cc(C)nc23)c(C)c1 (stereo not shown) [Example 12-3, [3-(4-Methoxy-2-methyl-phenyl)-2,5-dimethyl-pyrazolo[1,5-a]pyrimidin-7-yl]-[2,2,2-trifluoro-1-(3-methyl-[1,2,4]oxadiazol-5-ylmethyl)-ethyl]-amine]	–	< 100
CCC(Nc1cc(C)nc2c(-c3ccc(OC)cc3C)c(C)nn12)c1nc(C(C)C)no1 (stereo not shown) [Example 11-4, [1-(3-Isopropyl-[1,2,4]oxadiazol-5-yl)-propyl]-[3-(4-methoxy-2-methyl-phenyl)-2,5-dimethyl-pyrazolo[1,5-a]pyrimidin-7-yl]-amine]	–	< 100
COc1ccc(-c2c(C)nn3c(NC(C)Cc4nnc(C(F)(F)F)o4)cc(C)nc23)c(C)c1 (stereo not shown) [Example 23-2, [3-(4-Methoxy-2-methyl-phenyl)-2,5-dimethyl-pyrazolo[1,5-a]pyrimidin-7-yl]-[1-methyl-2-(5-trifluoromethyl-[1,3,4]oxadiazol-2-yl)-ethyl]-amine]	–	< 100
COCCN(Cc1nc(C)no1)c1cc(C)nc2c(-c3ccc(OC)cc3OC)c(C)nn12 [Example 15-1, [3-(2,4-Dimethoxy-phenyl)-2,5-dimethyl-pyrazolo[1,5-a]pyrimidin-7-yl]-(2-methoxy-ethyl)-(3-methyl-[1,2,4]oxadiazol-5-ylmethyl)-amine]	–	< 100
CCCC(Nc1cc(C)nc2c(-c3ccc(OC)cc3C)c(C)nn12)c1nc(C)no1 (stereo not shown) [Example 11-5, [3-(4-Methoxy-2-methyl-phenyl)-2,5-dimethyl-pyrazolo[1,5-a]pyrimidin-7-yl]-[1-(3-methyl-[1,2,4]oxadiazol-5-yl)-butyl]-amine]	–	< 100
CCC(Nc1cc(C)nc2c(-c3ccc(OC)cc3C)c(C)nn12)c1nnco1 (stereo not shown) [Example 21-1, [3-(4-Methoxy-2-methyl-phenyl)-2,5-dimethyl-pyrazolo[1,5-a]pyrimidin-7-yl]-(1-[1,3,4]oxadiazol-2-yl-propyl)-amine]	–	< 100
COc1ccc(-c2c(C)nn3c(NC(CC(C)C)c4nc(C)no4)cc(C)nc23)c(OC)c1 (stereo not shown) [Example 11-23, [3-(2,4-Dimethoxy-phenyl)-2,5-dimethyl-pyrazolo[1,5-a]pyrimidin-7-yl]-[3-methyl-1-(3-methyl-[1,2,4]oxadiazol-5-yl)-butyl]-amine]	–	< 100
Cc1cc(N[C@H](CC(C)C)c2nc(C)no2)n2nc(C)c(-c3cnc(N(C)C)cc3C)c2n1 [Example 11-18, [3-(6-Dimethylamino-4-methyl-pyridin-3-yl)-2,5-dimethyl-pyrazolo[1,5-a]pyrimidin-7-yl]-[3-methyl-(R)-1-(3-methyl-[1,2,4]oxadiazol-5-yl)-butyl]-amine]	–	< 100
COc1ccc(-c2c(C)nn3c(N[C@H](C)Cc4nc(C(F)(F)F)no4)cc(C)nc23)c(OC)c1 [Example 13-7, [3-(2,4-Dimethoxy-phenyl)-2,5-dimethyl-pyrazolo[1,5-a]pyrimidin-7-yl]-[(R)-1-methyl-2-(3-trifluoromethyl-[1,2,4]oxadiazol-5-yl)-ethyl]-amine]	–	< 100
COc1ccc(-c2c(C)nn3c(N[C@H](C)Cc4nc(C)no4)cc(C)nc23)c(C)c1 [Example 11-10, [3-(4-Methoxy-2-methyl-phenyl)-2,5-dimethyl-pyrazolo[1,5-a]pyrimidin-7-yl]-[(R)-1-methyl-2-(3-methyl-[1,2,4]oxadiazol-5-yl)-ethyl]-amine]	< 100	–
